Test results published in article PMC7485941 (Clinical and Translational Science, 2020).
“Also recorded” adds a separate entry of the source.

Experiments:
healthy subjects [1] = experiment: Concentration-QTc; assay type: in vivo, human; conditions: for Predicted (90% CI) ΔΔQTcF at geometric mean peak concentration: PK/QTc population
healthy subjects [2] = experiment: 12-lead ECG by time-point and categorical outlier analysis in the TQT study; assay type: in vivo, human
healthy subjects [3] = experiment: Safety and tolerability; assay type: in vivo, human; conditions: for overall percentage of TEAEs: part B
hERG channels = experiment: In vitro hERG ion channel assay; assay type: cell-based, human; conditions: 160 mg twice daily
[4] = Plasma pharmacokinetics in the TQT study; conditions: for Cmax: Geometric mean Cmax (90% CI), PK/QTc population
[5] = cited from earlier work
QTc interval = conditions: therapeutic and supratherapeutic concentrations; cited from earlier work

In the case of `COc1c(N2C[C@@H]3CCCN[C@@H]3C2)c(F)cc2c(=O)c(C(=O)O)cn(C3CC3)c12` [Moxifloxacin, moxifloxacin, reference compound], the “estimated population slope of the C-QTc relationship” value (healthy subjects [1]; moxifloxacin) is reported as 0.005 msec per ng/mL, the “intercept of the C-QTc relationship” value (healthy subjects [1]; moxifloxacin) is reported as 3.1 ms and the “peak effect, mean ΔΔQTcF” value (healthy subjects [2]; moxifloxacin 400 mg, at 2.5 hours postdose) is reported as 12.9 ms. The “mean ΔΔQTcF” value (healthy subjects [2]; moxifloxacin 400 mg, between 1 and 4 hours postdose) was “above 10 msec” and the “overall percentage of TEAEs” value (healthy subjects [3]; moxifloxacin 400 mg) was 22.2%.

With `C=CC(=O)N1CCC([C@@H]2CCNc3c(C(N)=O)c(-c4ccc(Oc5ccccc5)cc4)nn32)CC1` [Zanubrutinib] the “exposure margin, hERG IC50 over clinical steady-state unbound Cmax” value (hERG channels) was ~ 217 fold, the “Predicted (90% CI) ΔΔQTcF at geometric mean peak concentration” value (healthy subjects [1]; 160 mg, n = 27) was −3.16 (−4.51 to −1.81) msec and the “Predicted (90% CI) ΔΔQTcF at geometric mean peak concentration” value (healthy subjects [1]; 480 mg, n = 28) was −3.38 (−4.86 to −1.89) msec. For the same compound, the “Mean placebo-corrected change from baseline heart rate (ΔΔHR), magnitude (±)” value (healthy subjects [2]; all postdose time points, 160 and 480 mg) was less than 5 bpm, the “Mean ΔΔPR” value (healthy subjects [2]; all time points after dosing with zanubrutinib) was less than 5 ms and the “upper bound of the 90% CI of ΔΔQTcF” value (healthy subjects [2]; any postdose time point, both zanubrutinib doses) was no more than 1.2 ms. For the same compound, the “participants with HR outlier values” (healthy subjects [2]; categorical outlier analysis) was “no participant with HR outlier values”, the “participants with outlier QTcF values (> 450 msec)” value (healthy subjects [2]; categorical outlier analysis, zanubrutinib 160 and 480 mg) was “No participants had outlier QTcF values; also recorded: no participant had outlier values” and the “participants with outlier ΔQTcF values (> 30 msec)” value (healthy subjects [2]; categorical outlier analysis, zanubrutinib groups) was “No participant had outlier ΔQTcF values”. For the same compound, the “effect on QTc interval” value (healthy subjects [2]; single 160-mg or 480-mg dose) was “did not prolong the QTc interval”, the “highest observed plasma concentration in the TQT study” value ([4]; concentration range included in C-QTc modeling) was “≈ 800 ng/mL” and the Cmax ([4]; human, in vivo, 160 mg, n = 27) was 0.215 µg/mL. The Cmax ([4]; human, in vivo, 480 mg, n = 28) was 0.401 µg/mL, the half-life ([4]; human, in vivo, 480 mg, mean t ½, 480-mg dose, range over part A and part B) was 8.1 to 11 h and the Tmax ([4]; human, in vivo, 480 mg, median Tmax, range over part A and part B, 160 and 480 mg, postdose) was 1.5 to 2.8 h. For the same compound, the “SAEs or grade 3 or higher AEs related to administration” value (healthy subjects [3]; part A, 480 mg single dose, n = 6) was “no SAEs or grade 3 or higher AEs”, the “overall percentage of TEAEs” value (healthy subjects [3]; zanubrutinib 160 mg) was 10.0% and the “overall percentage of TEAEs” value (healthy subjects [3]; zanubrutinib 480 mg) was 13.3%. The “mean Cmax” value ([5]; 160 mg, patients with B-cell malignancy) was 0.346 µg/mL, the “mean terminal elimination half-life (t ½)” value ([5]; oral administration) was 2 to 4 h and the “clinical steady-state unbound Cmax” value ([5]; recommended phase III dose of 160 mg twice daily, no reference given) was 0.042 µM.

In the case of `CC#CC(=O)N1CCC[C@H]1c1nc(-c2ccc(C(=O)Nc3ccccn3)cc2)c2c(N)nccn12` [acalabrutinib], the “effect on QTc interval” value (QTc interval) is listed as “not to prolong the QTc interval”.
